Test [1] has as its target recombinant human 5′-nucleotidase (CD73) (Homo sapiens (Human), UniProt P21589). In words: Inhibition of CD73 enzyme activity in vitro (Malachite Green phosphate detection, CMP substrate). As to conditions: 0.34 nM recombinant human CD73, 2 h pre-incubation at 37° C., 45 μM CMP; read-out: IC50 values of biochemical inhibition of CD73 enzymatic activity. How it is done: Test Example 1, Test of the Compounds of the Present Invention for their Inhibition on CD73 Enzyme Activity In Vitro
CD73 enzyme, an ecto-5′-Nucleotidase, converts extracellular nucleoside-5′-monophosphates to nucleosides, with AMP or CMP as the preferred substrate. In this assay, recombinant human CD73 expressed from a Chinese hamster ovary cell line (R&D Systems) was used to convert cytidine monophosphate (CMP) to cytidine and phosphate. Before adding substrate, CD73 enzyme was pre-incubated with compounds for 2 hours. The amount of phosphate was then measured by Malachite Green Phosphate Detection Kit. The experimental method is summarized as follows:
Compounds are first dissolved in DMSO to 10 mM as a stock solution. When determining the IC50 of the compound, prepare 3-fold serial dilutions with a highest concentration of 125 μM for a total of 12 concentration points and ensure each dilution containing equal amount of DMSO. In each well of 384-well plate, 0.34 nM of recombinant human 5′-nucleotidase (CD73) was pre-incubated at 37° C. for 2 hours with the compounds tested in assay buffer containing 20 mM HEPES buffer (pH 7.4), 137 mM NaCl, 0.001% Tween 20. The final reaction volume of the reaction in each well was 12 μL. The highest concentration of compound was 125 μM and the DMSO concentration was 1.25%. After pre-incubation, 3 μL of CMP dissolved in assay buffer was added to each reaction. The final CMP concentration was 45 μM. The reaction was incubated at 37° C. for 15 minutes. Then 3 μL of Malachite Green Reagent A was added to each reaction. Spin the plate briefly in centrifuge for 30 seconds. After incubation for additional 10 minutes at room temperature, 3 μL of malachite green Reagent B was added to each reaction. Spin the plate briefly in centrifuge for 30 seconds. After 20 minutes of incubation at room temperature, the signal was read on a TECAN reader at OD620. The reaction containing CD73 enzyme, substrate CMP and DMSO (no compound) is used as an assay positive control while the reaction containing substrate CMP and DMSO without the CD73 enzyme as an assay negative control. IC50 values were calculated by plotting the logarithm of the compound concentration and the percent inhibition using the appropriate program in GraphPad Prism.
The biochemical inhibitions of CD73 enzymatic activities by the compounds of the present invention were determined by the assay described above, and the resulting IC50 values are shown in Table 1.

The subject of test [2] is human peripheral blood mononuclear cells (PBMCs). In words: IFNγ cytokine production in human PBMCs with AMP and CD3/CD28 antibody beads (HTRF). The format is cell-based. Conditions: compound 10 μM, 50 μM AMP, 72 hours. The procedure:
Test Example 2 Determination of Compound of the Present Invention Modulates Cellular Immune Function by IFNγ Cytokine Production
Lymphocyte medium and TexMACS medium were incubated in a water bath at 37° C. 10 mL of incubated lymphocyte medium was added to a 50 mL conical tube. The cells were quickly thawed in a 37° C. water bath and transferred to a 50 ml tube and the tube gently swirled. The cell suspension was centrifuged at 1100 rpm for 10 minutes at room temperature. The supernatant was removed, and the cell pellet gently resuspended in 10 mL of TexMACS medium. The cells were counted to make 5×10^5 cells/ml. 100 μL of 5×10^5 cells/ml of PBMCs seeds, inserted into a 96-well plate (cell density of 50,000 cells/well), and the most outer edge wells of the 96-well plate were filled with water and were not used for the test. […] Read the values of 665 nm and 620 nm on a PHERAstar FSX Multilabel Reader.
Calculated ratio=(signal at 665 nm/signal at 620 nm)×10^4, which reflected the “raw signal”. […] The concentration of IFNγ cytokine of each sample corresponding to the standard curve was calculated. […]
The production of IFNγ cytokines by the compounds of the present invention was measured by the above test. […]

Usually IC50 stands for the concentration that gives 50% inhibition.

Chain of recombinant human 5′-nucleotidase (CD73) (P21589 27-574): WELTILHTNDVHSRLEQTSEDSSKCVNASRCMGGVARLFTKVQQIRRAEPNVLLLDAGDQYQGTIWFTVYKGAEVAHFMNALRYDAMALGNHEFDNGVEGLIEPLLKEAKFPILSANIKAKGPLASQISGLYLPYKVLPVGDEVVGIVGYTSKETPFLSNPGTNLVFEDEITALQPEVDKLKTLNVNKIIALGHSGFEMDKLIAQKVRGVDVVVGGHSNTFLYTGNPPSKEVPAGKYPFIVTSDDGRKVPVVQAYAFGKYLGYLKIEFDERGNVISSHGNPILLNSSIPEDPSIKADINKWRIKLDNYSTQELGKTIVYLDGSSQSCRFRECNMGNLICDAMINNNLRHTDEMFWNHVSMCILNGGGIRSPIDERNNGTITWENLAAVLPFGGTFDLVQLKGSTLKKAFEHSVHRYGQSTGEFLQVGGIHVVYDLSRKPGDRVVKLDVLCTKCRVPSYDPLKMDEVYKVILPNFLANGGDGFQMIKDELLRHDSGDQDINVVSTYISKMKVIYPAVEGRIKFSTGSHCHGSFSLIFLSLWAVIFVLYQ

Turning to `O=P(O)(O)COC[C@H]1O[C@@H](n2ncc3c(N4CC5(CCCCC5)C4)nc(Cl)nc32)[C@H](O)[C@@H]1O` [Example 1, ((((2R,3S,4R,5R)-5-(6-chloro-4-(2-azaspiro[3.5]nonan-2-yl)-1H-pyrazolo[3,4-d]pyrimidin-1-yl)-3,4-dihydroxytetrahydrofuran-2-yl)methoxy)methyl)phosphonic acid], the IC50 in test [1] amounted to 0.11 nM. The “Response rate of IFNγ cytokines by a compound (fold) as compared to vehicle control (DMSO)” value in test [2] turned out to be 4.1 folds.

In the case of `O=P(O)(O)COC[C@H]1O[C@@H](n2ncc3c(N4CC5(CCc6ccccc65)C4)nc(Cl)nc32)[C@H](O)[C@@H]1O` [Example 2, ((((2R,3S,4R,5R)-5-(6-chloro-4-(2′,3′-dihydrospiro[azetidine-3,1′-inden]-1-yl)-1H-pyrazolo[3,4-d]pyrimidin-1-yl)-3,4-dihydroxytetrahydrofuran-2-yl)methoxy)methyl)phosphonic acid], the half-maximal inhibitory concentration (IC50) in test [1] came to 0.013 nM. The “Response rate of IFNγ cytokines by a compound (fold) as compared to vehicle control (DMSO)” value in test [2] is on record as 4.3 folds.

As to `CC(C)OC(=O)OCOP(=O)(O)COC[C@H]1O[C@@H](n2ncc3c(N4CC5(CCc6ccccc65)C4)nc(Cl)nc32)[C@H](O)[C@@H]1O` [Example 3, ((((((2R,3S,4R,5R)-5-(6-chloro-4-(2′,3′-dihydrospiro[azetidine-3,1′-inden]-1-yl)-1H-pyrazolo[3,4-d]pyrimidin-1-yl)-3,4-dihydroxytetrahydrofuran-2-yl)methoxy)methyl)(hydroxy)phosphoryl)oxy)methyl isopropyl carbonate], in test [1], the IC50 was 2.1 nM.

Consider `CC(C)OC(=O)OCOP(=O)(COC[C@H]1O[C@@H](n2ncc3c(N4CC5(CCc6ccccc65)C4)nc(Cl)nc32)[C@H](O)[C@@H]1O)OCOC(=O)OC(C)C` [Example 4, ((((((2R,3S,4R,5R)-5-(6-chloro-4-(2′,3′-dihydrospiro[azetidine-3,1′-inden]-1-yl)-1H-pyrazolo[3,4-d]pyrimidin-1-yl)-3,4-dihydroxytetrahydrofuran-2-yl)methoxy)methyl)phosphoryl)bis(oxy))bis(methylene) diisopropyl decarbonate], for which the IC50 in test [1] was determined as 710 nM.

As for `O=P(O)(O)COC[C@H]1O[C@@H](n2ncc3c(N4CC5(C4)OCc4cc(Cl)ccc45)nc(Cl)nc32)[C@H](O)[C@@H]1O` [Example 5, ((((2R,3S,4R,5R)-5-(6-chloro-4-(5′-chloro-3′H-spiro[azetidine-3,1′-isobenzofuran]-1-yl)-1H-pyrazolo[3,4-d]pyrimidin-1-yl)-3,4-dihydroxytetrahydrofuran-2-yl)methoxy)methyl)phosphonic acid], in test [1], the IC50 worked out at 0.074 nM.

For `O=P(O)(O)COC[C@H]1O[C@@H](n2ncc3c(N4CC5(CCc6ccc(F)cc65)C4)nc(Cl)nc32)[C@H](O)[C@@H]1O` [Example 6, ((((2R,3S,4R,5R)-5-(6-chloro-4-(6′-fluoro-2′,3′-dihydrospiro[azetidine-3,1′-inden]-1-yl)-1H-pyrazolo[3,4-d]pyrimidin-1-yl)-3,4-dihydroxytetrahydrofuran-2-yl)methoxy)methyl)phosphonic acid], the IC50 in test [1] worked out at 0.25 nM.

Consider `COc1ccc2c(c1)CCC21CN(c2nc(Cl)nc3c2cnn3[C@@H]2O[C@H](COCP(=O)(O)O)[C@@H](O)[C@H]2O)C1` [Example 7, ((((2R,3S,4R,5R)-5-(6-chloro-4-(5′-methoxy-2′,3′-dihydrospiro[azetidine-3,1′-inden]-1-yl)-1H-pyrazolo[3,4-d]pyrimidin-1-yl)-3,4-dihydroxytetrahydrofuran-2-yl)methoxy)methyl)phosphonic acid], for which, in test [1], the half-inhibitory concentration (IC50) was determined as 0.13 nM.

For `CC(OC(=O)C(C)(C)C)OP(=O)(O)COC[C@H]1O[C@@H](n2ncc3c(N4CC5(CCc6ccccc65)C4)nc(Cl)nc32)[C@H](O)[C@@H]1O` (stereo partly drawn) [Example 9, 1-((((((2R,3S,4R,5R)-5-(6-chloro-4-(2′,3′-dihydrospiro[azetidine-3,1′-inden]-1-yl)-1H-pyrazolo[3,4-d]pyrimidin-1-yl)-3,4-dihydroxytetrahydrofuran-2-yl)methoxy)methyl)(hydroxy)phosphoryl)oxy)ethyl pivalate], the IC50 in test [1] was 8.5 nM.

Take `O=P(COC[C@H]1O[C@@H](n2ncc3c(N4CC5(CCc6ccccc65)C4)nc(Cl)nc32)[C@H](O)[C@@H]1O)(Oc1ccccc1)Oc1ccccc1` [Example 10, diphenyl((((2R,3S,4R,5R)-5-(6-chloro-4-(2′,3′-dihydrospiro[azetidine-3,1′-inden]-1-yl)-1H-pyrazolo[3,4-d]pyrimidin-1-yl)-3,4-dihydroxytetrahydrofuran-2-yl)methoxy)methyl)phosphonate]: the IC50 in test [1] is 7.6 nM.

With `O=P(O)(COC[C@H]1O[C@@H](n2ncc3c(N4CC5(CCc6ccccc65)C4)nc(Cl)nc32)[C@H](O)[C@@H]1O)Oc1ccccc1` [Example 11, phenyl hydrogen ((((2R,3S,4R,5R)-5-(6-chloro-4-(2′,3′-dihydrospiro[azetidine-3,1′-inden]-1-yl)-1H-pyrazolo[3,4-d]pyrimidin-1-yl)-3,4-dihydroxytetrahydrofuran-2-yl)methoxy)methyl)phosphonate], in test [1], the IC50 was found to be 0.9 nM.

In the case of `O=P(O)(O)Cc1cccc(OC[C@H]2O[C@@H](n3ncc4c(N5CC6(CCCCC6)C5)nc(Cl)nc43)[C@H](O)[C@@H]2O)c1` [Example 12, (3-(((2R,3S,4R,5R)-5-(6-chloro-4-(2-azaspiro[3.5]nonan-2-yl)-1H-pyrazolo[3,4-d]pyrimidin-1-yl)-3,4-dihydroxytetrahydrofuran-2-yl)methoxy)benzyl)phosphonic acid], the IC50 in test [1] was found to be 300 nM.
